Experimental findings from PubChem BioAssay (NCI) are described below.

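Method: 48-hour compound exposure of cells in 96-well plates, five concentrations, linear interpolation of endpoints. Definition used: TGI = concentration required for complete inhibition of growth.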

The first experiment has as its system NCI-H226 lung. The experiment can be described thus: growth of human tumour cells (NCI), 48 h.
As for `C/C(=N/NC(=S)Nc1cccc(C)c1)c1ccccn1`, the TGI amounted to 1.28 µM.

Regarding `O=C1/C(=C/c2ccc(Br)s2)NC(=S)N1CN1CCOCC1`, the TGI was greater than 100 µM.

`Cc1ccc(C(=O)Nc2ccc(CP(=O)(O)O)cc2)cc1NC(=O)c1cccc(NC(=O)Nc2cccc(C(=O)Nc3cc(C(=O)Nc4ccc(CP(=O)(O)O)cc4)ccc3C)c2)c1`: the TGI is greater than 100 µM.

On to `NCCCC(N)C(=O)O` (stereo unspecified), for which the TGI is greater than 100 µM.

In turn, `CCOC(=O)c1c(N)n(-c2ccccc2)c(=S)n(-c2ccccc2)c1=O` registered a TGI greater than 100 µM.

Another experiment has as its system UACC-62 melanoma. Nature of the experiment: growth of human tumour cells (NCI), 48 h.
`Cc1oc2nc(N(C)C)n3nnnc3c2c1C` yielded a TGI greater than 100 µM.

`Cc1nc(Cl)c(CBr)c(Cl)n1`: the TGI came out at 3.46 µM.

Take `C[C@]12CC/C(=N\O)C=C1CC[C@@H]1[C@@H]2CC[C@]2(C)C(=N/O)/C(=C/c3cccnc3)C[C@@H]12`: the TGI was determined as 10.4 µM.

Regarding `N#CSCc1cccc(Nc2cc(=O)[nH]c(=O)[nH]2)c1`, the TGI was greater than 100 µM.

`COc1ccc2c(c1)C(=O)c1ccccc1C2` yielded a TGI greater than 100 µM.

For `O=c1nc2c(c(-c3cccc(Cl)c3)[nH]1)COC/C2=C\c1cccc(Cl)c1`, the TGI was greater than 100 µM.

The compound `CC(C)/C(Cl)=N\OC(=O)NNc1ccccc1` registered a TGI greater than 100 µM.

With `CC1=CC=CC(C)(C)CC1(O[Si](C)(C)C)C(F)(F)F` (stereo unspecified), the TGI was greater than 100 µM.

In turn, `CN(O)C(=O)Cc1ccc(OCc2cccc(Cl)c2)cc1` had a TGI greater than 100 µM.

With `CN1C(=O)CN(NC(=O)C2=C(O)c3ccc(Br)cc3S(=O)(=O)N2)C1=S`, the TGI was greater than 100 µM.

`CC1=C2c3ccccc3N(C(=O)/C=C/C(=O)O)[C@H]2[C@H]2C(=O)OC(=O)[C@H]2C1` displayed a TGI greater than 10 µM.

With `CCN(CCCN(CC)C(=O)N[C@@H](Cc1ccccc1)C(=O)NC)C(=O)N[C@@H](Cc1ccccc1)C(=O)NC`, the TGI is greater than 100 µM.

`CN1CCN(C(=S)N(C)C(=O)c2ccc(Cl)cc2)CC1`: the TGI was greater than 100 µM.

Regarding `CC(C)(CO)N1C(=O)c2ccccc2C1(O)c1ccc(Cl)cc1` (stereo unspecified), the TGI was greater than 100 µM.

Turning to `C/C(=N/NC(=S)Nc1cccc(C)c1)c1ccccn1`, the TGI was 2.92 µM.

Compound `O=C1/C(=C/c2ccc(Br)s2)NC(=S)N1CN1CCOCC1` had a TGI of 48.6 µM.

On to `Cc1ccc(C(=O)Nc2ccc(CP(=O)(O)O)cc2)cc1NC(=O)c1cccc(NC(=O)Nc2cccc(C(=O)Nc3cc(C(=O)Nc4ccc(CP(=O)(O)O)cc4)ccc3C)c2)c1`, for which the TGI was greater than 100 µM.

In the case of `NCCCC(N)C(=O)O` (stereo unspecified), the TGI was greater than 100 µM.

In the case of `CCOC(=O)c1c(N)n(-c2ccccc2)c(=S)n(-c2ccccc2)c1=O`, the TGI is greater than 100 µM.

The next experiment has as its system U251 CNS. Nature of the experiment: growth of human tumour cells (NCI), 48 h.
Take `Cc1oc2nc(N(C)C)n3nnnc3c2c1C`: the TGI is greater than 100 µM.

`C[C@@H]1C[C@H](O)[C@]2(O)O[C@@H]3C[C@@]4(C=O)[C@@H](CC=C5[C@@H]4CC[C@]4(C)[C@@H](C6=CC(=O)OC6)CC[C@]54O)C[C@H]3O[C@@H]2O1` yielded a TGI of 0.188 µM.

`Cc1nc(Cl)c(CBr)c(Cl)n1`: the TGI was 4.1 µM.

With `C[C@]12CC/C(=N\O)C=C1CC[C@@H]1[C@@H]2CC[C@]2(C)C(=N/O)/C(=C/c3cccnc3)C[C@@H]12`, the TGI is 94.9 µM.

`N#CSCc1cccc(Nc2cc(=O)[nH]c(=O)[nH]2)c1` had a TGI greater than 100 µM.

`COc1ccc2c(c1)C(=O)c1ccccc1C2` gave a TGI greater than 100 µM.

Turning to `O=c1nc2c(c(-c3cccc(Cl)c3)[nH]1)COC/C2=C\c1cccc(Cl)c1`, the TGI is greater than 100 µM.

In turn, `CC(C)/C(Cl)=N\OC(=O)NNc1ccccc1` registered a TGI greater than 100 µM.

As for `CC1=CC=CC(C)(C)CC1(O[Si](C)(C)C)C(F)(F)F` (stereo unspecified), the TGI was greater than 100 µM.

The compound `CN(O)C(=O)Cc1ccc(OCc2cccc(Cl)c2)cc1` came in with a TGI greater than 100 µM.

In turn, `CN1C(=O)CN(NC(=O)C2=C(O)c3ccc(Br)cc3S(=O)(=O)N2)C1=S` registered a TGI greater than 100 µM.

`CC1=C2c3ccccc3N(C(=O)/C=C/C(=O)O)[C@H]2[C@H]2C(=O)OC(=O)[C@H]2C1`: the TGI is greater than 10 µM.

`CCN(CCCN(CC)C(=O)N[C@@H](Cc1ccccc1)C(=O)NC)C(=O)N[C@@H](Cc1ccccc1)C(=O)NC` yielded a TGI greater than 100 µM.

The compound `CN1CCN(C(=S)N(C)C(=O)c2ccc(Cl)cc2)CC1` returned a TGI greater than 100 µM.

`CC(C)(CO)N1C(=O)c2ccccc2C1(O)c1ccc(Cl)cc1` (stereo unspecified) returned a TGI greater than 100 µM.

Compound `O=C1/C(=C/c2ccc(F)cc2)CNC/C1=C\c1ccc(F)cc1` showed a TGI of 1.39 µM.

`C/C(=N/NC(=S)Nc1cccc(C)c1)c1ccccn1` displayed a TGI of 4.89 µM.

Take `O=C1/C(=C/c2ccc(Br)s2)NC(=S)N1CN1CCOCC1`: the TGI is greater than 100 µM.

The compound `Cc1ccc(C(=O)Nc2ccc(CP(=O)(O)O)cc2)cc1NC(=O)c1cccc(NC(=O)Nc2cccc(C(=O)Nc3cc(C(=O)Nc4ccc(CP(=O)(O)O)cc4)ccc3C)c2)c1` showed a TGI greater than 100 µM.

Compound `NCCCC(N)C(=O)O` (stereo unspecified) gave a TGI greater than 100 µM.

As to `CCOC(=O)c1c(N)n(-c2ccccc2)c(=S)n(-c2ccccc2)c1=O`, the TGI was greater than 100 µM.

The next experiment concerns MDA-MB-435. The experiment can be described thus: growth of human tumour cells (NCI), 48 h.
`Cc1oc2nc(N(C)C)n3nnnc3c2c1C` returned a TGI greater than 100 µM.

With `C[C@@H]1C[C@H](O)[C@]2(O)O[C@@H]3C[C@@]4(C=O)[C@@H](CC=C5[C@@H]4CC[C@]4(C)[C@@H](C6=CC(=O)OC6)CC[C@]54O)C[C@H]3O[C@@H]2O1`, the TGI was found to be 0.151 µM.

Turning to `Cc1nc(Cl)c(CBr)c(Cl)n1`, the TGI worked out at 3.3 µM.

In the case of `C[C@]12CC/C(=N\O)C=C1CC[C@@H]1[C@@H]2CC[C@]2(C)C(=N/O)/C(=C/c3cccnc3)C[C@@H]12`, the TGI turned out to be 46.9 µM.

`N#CSCc1cccc(Nc2cc(=O)[nH]c(=O)[nH]2)c1`: the TGI is greater than 100 µM.

Turning to `COc1ccc2c(c1)C(=O)c1ccccc1C2`, the TGI is greater than 100 µM.

On to `O=c1nc2c(c(-c3cccc(Cl)c3)[nH]1)COC/C2=C\c1cccc(Cl)c1`, for which the TGI is greater than 100 µM.

Take `CC(C)/C(Cl)=N\OC(=O)NNc1ccccc1`: the TGI is greater than 100 µM.

Compound `CC1=CC=CC(C)(C)CC1(O[Si](C)(C)C)C(F)(F)F` (stereo unspecified) yielded a TGI greater than 100 µM.

For `CN(O)C(=O)Cc1ccc(OCc2cccc(Cl)c2)cc1`, the TGI was greater than 100 µM.

Consider `CN1C(=O)CN(NC(=O)C2=C(O)c3ccc(Br)cc3S(=O)(=O)N2)C1=S`, for which the TGI is greater than 100 µM.

In turn, `CC1=C2c3ccccc3N(C(=O)/C=C/C(=O)O)[C@H]2[C@H]2C(=O)OC(=O)[C@H]2C1` returned a TGI greater than 10 µM.

`CCN(CCCN(CC)C(=O)N[C@@H](Cc1ccccc1)C(=O)NC)C(=O)N[C@@H](Cc1ccccc1)C(=O)NC` registered a TGI greater than 100 µM.

`CN1CCN(C(=S)N(C)C(=O)c2ccc(Cl)cc2)CC1` came in with a TGI greater than 100 µM.

`CC(C)(CO)N1C(=O)c2ccccc2C1(O)c1ccc(Cl)cc1` (stereo unspecified) gave a TGI greater than 100 µM.

With `O=C1/C(=C/c2ccc(F)cc2)CNC/C1=C\c1ccc(F)cc1`, the TGI came out at 7.51 µM.

On to `C/C(=N/NC(=S)Nc1cccc(C)c1)c1ccccn1`, for which the TGI was found to be 3.5 µM.

Compound `O=C1/C(=C/c2ccc(Br)s2)NC(=S)N1CN1CCOCC1` came in with a TGI greater than 100 µM.

`Cc1ccc(C(=O)Nc2ccc(CP(=O)(O)O)cc2)cc1NC(=O)c1cccc(NC(=O)Nc2cccc(C(=O)Nc3cc(C(=O)Nc4ccc(CP(=O)(O)O)cc4)ccc3C)c2)c1` came in with a TGI greater than 100 µM.

The compound `NCCCC(N)C(=O)O` (stereo unspecified) displayed a TGI greater than 100 µM.

On to `CCOC(=O)c1c(N)n(-c2ccccc2)c(=S)n(-c2ccccc2)c1=O`, for which the TGI is greater than 100 µM.

Another experiment relates to SF-539 CNS. Nature of the experiment: growth of human tumour cells (NCI), 48 h.
Consider `Cc1oc2nc(N(C)C)n3nnnc3c2c1C`, for which the TGI was greater than 100 µM.

As to `C[C@@H]1C[C@H](O)[C@]2(O)O[C@@H]3C[C@@]4(C=O)[C@@H](CC=C5[C@@H]4CC[C@]4(C)[C@@H](C6=CC(=O)OC6)CC[C@]54O)C[C@H]3O[C@@H]2O1`, the TGI stood at 0.141 µM.

As for `Cc1nc(Cl)c(CBr)c(Cl)n1`, the TGI was found to be 3.72 µM.

On to `C[C@]12CC/C(=N\O)C=C1CC[C@@H]1[C@@H]2CC[C@]2(C)C(=N/O)/C(=C/c3cccnc3)C[C@@H]12`, for which the TGI is 82.8 µM.

Turning to `N#CSCc1cccc(Nc2cc(=O)[nH]c(=O)[nH]2)c1`, the TGI was 98.6 µM.

On to `COc1ccc2c(c1)C(=O)c1ccccc1C2`, for which the TGI is greater than 100 µM.

Turning to `O=c1nc2c(c(-c3cccc(Cl)c3)[nH]1)COC/C2=C\c1cccc(Cl)c1`, the TGI was greater than 100 µM.

As to `CC(C)/C(Cl)=N\OC(=O)NNc1ccccc1`, the TGI is greater than 100 µM.

Regarding `CC1=CC=CC(C)(C)CC1(O[Si](C)(C)C)C(F)(F)F` (stereo unspecified), the TGI is greater than 100 µM.

`CN(O)C(=O)Cc1ccc(OCc2cccc(Cl)c2)cc1`: the TGI is greater than 100 µM.

In turn, `CC1=C2c3ccccc3N(C(=O)/C=C/C(=O)O)[C@H]2[C@H]2C(=O)OC(=O)[C@H]2C1` displayed a TGI greater than 10 µM.

For the compound `CCN(CCCN(CC)C(=O)N[C@@H](Cc1ccccc1)C(=O)NC)C(=O)N[C@@H](Cc1ccccc1)C(=O)NC`, the TGI was greater than 100 µM.

For `O=C1/C(=C/c2ccc(F)cc2)CNC/C1=C\c1ccc(F)cc1`, the TGI stood at 2.39 µM.

Take `C/C(=N/NC(=S)Nc1cccc(C)c1)c1ccccn1`: the TGI was 5.62 µM.

In turn, `Cc1ccc(C(=O)Nc2ccc(CP(=O)(O)O)cc2)cc1NC(=O)c1cccc(NC(=O)Nc2cccc(C(=O)Nc3cc(C(=O)Nc4ccc(CP(=O)(O)O)cc4)ccc3C)c2)c1` displayed a TGI greater than 100 µM.

In the next experiment the test system is MOLT-4 leukemia. The experiment can be described thus: growth of human tumour cells (NCI), 48 h.
`Cc1oc2nc(N(C)C)n3nnnc3c2c1C` yielded a TGI greater than 100 µM.

Take `Cc1nc(Cl)c(CBr)c(Cl)n1`: the TGI turned out to be 1.09 µM.

Turning to `C[C@]12CC/C(=N\O)C=C1CC[C@@H]1[C@@H]2CC[C@]2(C)C(=N/O)/C(=C/c3cccnc3)C[C@@H]12`, the TGI is 4 µM.

`COc1ccc2c(c1)C(=O)c1ccccc1C2`: the TGI was greater than 100 µM.

`O=c1nc2c(c(-c3cccc(Cl)c3)[nH]1)COC/C2=C\c1cccc(Cl)c1` showed a TGI greater than 100 µM.

`CC(C)/C(Cl)=N\OC(=O)NNc1ccccc1` displayed a TGI of 17.7 µM.

As for `CN(O)C(=O)Cc1ccc(OCc2cccc(Cl)c2)cc1`, the TGI is greater than 100 µM.

Regarding `CN1C(=O)CN(NC(=O)C2=C(O)c3ccc(Br)cc3S(=O)(=O)N2)C1=S`, the TGI is greater than 100 µM.

In turn, `CC1=C2c3ccccc3N(C(=O)/C=C/C(=O)O)[C@H]2[C@H]2C(=O)OC(=O)[C@H]2C1` had a TGI greater than 10 µM.

Compound `CN1CCN(C(=S)N(C)C(=O)c2ccc(Cl)cc2)CC1` yielded a TGI greater than 100 µM.

For the compound `CC(C)(CO)N1C(=O)c2ccccc2C1(O)c1ccc(Cl)cc1` (stereo unspecified), the TGI was greater than 100 µM.

The compound `O=C1/C(=C/c2ccc(F)cc2)CNC/C1=C\c1ccc(F)cc1` yielded a TGI greater than 40.5 µM.

In the case of `O=C1/C(=C/c2ccc(Br)s2)NC(=S)N1CN1CCOCC1`, the TGI was greater than 100 µM.

Compound `NCCCC(N)C(=O)O` (stereo unspecified) returned a TGI greater than 100 µM.

Turning to `CCOC(=O)c1c(N)n(-c2ccccc2)c(=S)n(-c2ccccc2)c1=O`, the TGI is greater than 100 µM.
